# Assay results as given in PubChem BioAssay (NCI).
# Values joined by “and” are separate entries in the source; they are usually repeats but may differ in a detail not shown here. Equal entries are not always repeated.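 Values below derive from 48-hour exposures of cells grown in 96-well plates, with endpoints linearly interpolated between the two concentrations bracketing the appropriate inhibition level. GI50: concentration for 50% inhibition of growth. At the TGI there is no net growth.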
# What was measured:
# Experiment in all cases: DTP human tumour cell line panel, 48 h
# 786-0 renal = test system: 786-0 renal
# A498 renal = test system: A498 renal
# A549 NSCLC = test system: A549 NSCLC
# ACHN renal = test system: ACHN renal
# BT-549 breast = test system: BT-549 breast
# CAKI-1 renal = test system: CAKI-1 renal
# CCRF-CEM leukemia = test system: CCRF-CEM leukemia
# COLO 205 colon = test system: COLO 205 colon
# DU-145 prostate = test system: DU-145 prostate
# EKVX NSCLC = test system: EKVX NSCLC
# HCC-2998 colon = test system: HCC-2998 colon
# HCT-116 colon = test system: HCT-116 colon
# HCT-15 colon = test system: HCT-15 colon
# HL-60(TB) leukemia = test system: HL-60(TB) leukemia
# HOP-62 NSCLC = test system: HOP-62 NSCLC
# HOP-92 NSCLC = test system: HOP-92 NSCLC
# HS 578T breast = test system: HS 578T breast
# HT29 colon = test system: HT29 colon
# IGROV1 ovarian = test system: IGROV1 ovarian
# K-562 leukemia = test system: K-562 leukemia
# KM12 colon = test system: KM12 colon
# LOX IMVI melanoma = test system: LOX IMVI melanoma
# M14 melanoma = test system: M14 melanoma
# MALME-3M melanoma = test system: MALME-3M melanoma
# MCF7 breast = test system: MCF7 breast
# MDA-MB-231 breast = test system: MDA-MB-231 breast
# MDA-MB-435 = test system: MDA-MB-435
# MOLT-4 leukemia = test system: MOLT-4 leukemia
# NCI-H226 lung = test system: NCI-H226 lung
# NCI-H23 lung = test system: NCI-H23 lung
# NCI-H460 lung = test system: NCI-H460 lung
# NCI-H522 lung = test system: NCI-H522 lung
# NCI/ADR-RES ovarian = test system: NCI/ADR-RES ovarian
# OVCAR-3 ovarian = test system: OVCAR-3 ovarian
# OVCAR-4 ovarian = test system: OVCAR-4 ovarian
# OVCAR-5 ovarian = test system: OVCAR-5 ovarian
# OVCAR-8 ovarian = test system: OVCAR-8 ovarian
# PC-3 prostate = test system: PC-3 prostate
# RPMI-8226 leukemia = test system: RPMI-8226 leukemia
# RXF 393 renal = test system: RXF 393 renal
# SF-268 CNS = test system: SF-268 CNS
# SF-295 CNS = test system: SF-295 CNS
# SF-539 CNS = test system: SF-539 CNS
# SK-MEL-2 melanoma = test system: SK-MEL-2 melanoma
# SK-MEL-28 melanoma = test system: SK-MEL-28 melanoma
# SK-MEL-5 melanoma = test system: SK-MEL-5 melanoma
# SK-OV-3 ovarian = test system: SK-OV-3 ovarian
# SN12C renal = test system: SN12C renal
# SNB-19 CNS = test system: SNB-19 CNS
# SNB-75 CNS = test system: SNB-75 CNS
# SR leukemia = test system: SR leukemia
# SW-620 colon = test system: SW-620 colon
# T-47D breast = test system: T-47D breast
# TK-10 renal = test system: TK-10 renal
# U251 CNS = test system: U251 CNS
# UACC-257 melanoma = test system: UACC-257 melanoma
# UACC-62 melanoma = test system: UACC-62 melanoma
# UO-31 renal = test system: UO-31 renal
# MDA-N = test system: MDA-N
compound,measurement,setting,value
Cc1c(C(=O)O[C@H]2[C@@H]3[C@H](C)CC[C@H]3[C@]3(C)O[C@@]2(C2CCCCC2)C[C@H]3OC(=O)CO)ccc2ccccc12,GI50,786-0 renal,6.52 µM
same,TGI,786-0 renal,13.1 µM
same,GI50,A498 renal,0.0173 µM
same,TGI,A498 renal,0.144 µM
same,GI50,A549 NSCLC,7.11 µM
same,TGI,A549 NSCLC,13.7 µM
same,GI50,ACHN renal,0.0589 µM
same,TGI,ACHN renal,0.766 µM
same,GI50,BT-549 breast,5.28 µM
same,TGI,BT-549 breast,12.7 µM
same,GI50,CAKI-1 renal,0.244 µM
same,TGI,CAKI-1 renal,6.82 µM
same,GI50,CCRF-CEM leukemia,9.13 µM
same,TGI,CCRF-CEM leukemia,20.9 µM
same,GI50,COLO 205 colon,9.2 µM
same,TGI,COLO 205 colon,17.5 µM
same,GI50,DU-145 prostate,7.77 µM
same,TGI,DU-145 prostate,14.6 µM
same,GI50,EKVX NSCLC,6.94 µM
same,TGI,EKVX NSCLC,14.2 µM
same,GI50,HCC-2998 colon,8.09 µM
same,TGI,HCC-2998 colon,15.8 µM
same,GI50,HCT-116 colon,7.57 µM
same,TGI,HCT-116 colon,14.5 µM
same,GI50,HCT-15 colon,7.86 µM
same,TGI,HCT-15 colon,15.2 µM
same,GI50,HL-60(TB) leukemia,9.3 µM
same,TGI,HL-60(TB) leukemia,20 µM
same,GI50,HOP-62 NSCLC,8.48 µM
same,TGI,HOP-62 NSCLC,15.3 µM
same,GI50,HOP-92 NSCLC,4.19 µM
same,TGI,HOP-92 NSCLC,10.4 µM
same,GI50,HS 578T breast,0.0165 µM
same,TGI,HS 578T breast,0.142 µM
same,GI50,HT29 colon,7.07 µM
same,TGI,HT29 colon,14.2 µM
same,GI50,IGROV1 ovarian,8.39 µM
same,TGI,IGROV1 ovarian,17.3 µM
same,GI50,K-562 leukemia,11 µM
same,TGI,K-562 leukemia,27 µM
same,GI50,KM12 colon,8.35 µM
same,TGI,KM12 colon,17.4 µM
same,GI50,LOX IMVI melanoma,7.45 µM
same,TGI,LOX IMVI melanoma,14.2 µM
same,GI50,M14 melanoma,7.92 µM
same,TGI,M14 melanoma,16.7 µM
same,GI50,MALME-3M melanoma,7.24 µM
same,TGI,MALME-3M melanoma,14.5 µM
same,GI50,MCF7 breast,7.38 µM
same,TGI,MCF7 breast,15.9 µM
same,GI50,MDA-MB-231 breast,8 µM
same,TGI,MDA-MB-231 breast,16.7 µM
same,GI50,MDA-MB-435,8.15 µM
same,TGI,MDA-MB-435,15.4 µM
same,GI50,MOLT-4 leukemia,7.15 µM
same,TGI,MOLT-4 leukemia,17.7 µM
same,GI50,NCI-H226 lung,7.67 µM
same,TGI,NCI-H226 lung,15.1 µM
same,GI50,NCI-H23 lung,8.29 µM
same,TGI,NCI-H23 lung,17.7 µM
same,GI50,NCI-H460 lung,7.87 µM
same,TGI,NCI-H460 lung,16.6 µM
same,GI50,NCI-H522 lung,7.11 µM
same,TGI,NCI-H522 lung,13.8 µM
same,GI50,NCI/ADR-RES ovarian,5.65 µM
same,TGI,NCI/ADR-RES ovarian,12.8 µM
same,GI50,OVCAR-3 ovarian,7.57 µM
same,TGI,OVCAR-3 ovarian,14.4 µM
same,GI50,OVCAR-4 ovarian,7.6 µM
same,TGI,OVCAR-4 ovarian,14.3 µM
same,GI50,OVCAR-5 ovarian,9.5 µM
same,TGI,OVCAR-5 ovarian,17.8 µM
same,GI50,OVCAR-8 ovarian,6.64 µM
same,TGI,OVCAR-8 ovarian,13.8 µM
same,GI50,PC-3 prostate,6.96 µM
same,TGI,PC-3 prostate,15.6 µM
same,GI50,RPMI-8226 leukemia,8.89 µM
same,TGI,RPMI-8226 leukemia,20.6 µM
same,GI50,RXF 393 renal,0.164 µM
same,TGI,RXF 393 renal,7.12 µM
same,GI50,SF-268 CNS,3.49 µM
same,TGI,SF-268 CNS,11.8 µM
same,GI50,SF-295 CNS,7.04 µM
same,TGI,SF-295 CNS,13.6 µM
same,GI50,SF-539 CNS,7.65 µM
same,TGI,SF-539 CNS,14.9 µM
same,GI50,SK-MEL-2 melanoma,9.19 µM
same,TGI,SK-MEL-2 melanoma,16.7 µM
same,GI50,SK-MEL-28 melanoma,8.44 µM
same,TGI,SK-MEL-28 melanoma,15.8 µM
same,GI50,SK-MEL-5 melanoma,7.28 µM
same,TGI,SK-MEL-5 melanoma,13.8 µM
same,GI50,SK-OV-3 ovarian,9.19 µM
same,TGI,SK-OV-3 ovarian,17.1 µM
same,GI50,SN12C renal,0.157 µM
same,TGI,SN12C renal,8.36 µM
same,GI50,SNB-19 CNS,8.56 µM
same,TGI,SNB-19 CNS,15.6 µM
same,GI50,SNB-75 CNS,2.98 µM
same,TGI,SNB-75 CNS,11 µM
same,GI50,SR leukemia,7.36 µM
same,TGI,SR leukemia,18.3 µM
same,GI50,SW-620 colon,8.01 µM
same,TGI,SW-620 colon,16.3 µM
same,GI50,T-47D breast,5.37 µM
same,TGI,T-47D breast,11.6 µM
same,GI50,TK-10 renal,8.12 µM
same,TGI,TK-10 renal,15.4 µM
same,GI50,U251 CNS,7.43 µM
same,TGI,U251 CNS,13.9 µM
same,GI50,UACC-257 melanoma,7.83 µM
same,TGI,UACC-257 melanoma,14.8 µM
same,GI50,UACC-62 melanoma,7.97 µM
same,TGI,UACC-62 melanoma,15.1 µM
same,GI50,UO-31 renal,0.408 µM
same,TGI,UO-31 renal,7.96 µM
CCC1(O)CC(OC2CC(N(C)C)C(OC3CC(O)C(OC4CCC(=O)C(C)O4)C(C)O3)C(C)O2)c2c(O)c3c(c(O)c2C1C(=O)OC)C(=O)c1cccc(O)c1C3=O (stereo not drawn),TGI,786-0 renal,0.218 µM and 0.449 µM
same,TGI,CAKI-1 renal,0.0098 µM
same,TGI,CCRF-CEM leukemia,0.0328 µM
same,TGI,COLO 205 colon,0.124 µM
same,TGI,DU-145 prostate,0.124 µM
same,TGI,HCC-2998 colon,0.04 µM
same,TGI,HCT-15 colon,0.0543 µM and 0.09 µM
same,TGI,HL-60(TB) leukemia,0.0496 µM
same,TGI,HOP-62 NSCLC,0.138 µM and 0.119 µM
same,TGI,HOP-92 NSCLC,0.763 µM and 2.17 µM
same,TGI,HT29 colon,0.103 µM and 0.0147 µM
same,TGI,IGROV1 ovarian,0.0281 µM
same,TGI,K-562 leukemia,0.0125 µM
same,TGI,KM12 colon,1.28 µM
same,TGI,M14 melanoma,0.013 µM
same,GI50,MALME-3M melanoma,0.0106 µM
same,TGI,MALME-3M melanoma,0.0667 µM and 0.0267 µM
same,TGI,MCF7 breast,1.02 µM
same,TGI,MDA-MB-231 breast,0.28 µM and 0.229 µM
same,TGI,MDA-MB-435,0.101 µM
same,TGI,MDA-N,0.107 µM and 0.0142 µM
same,TGI,NCI-H23 lung,0.112 µM and 0.031 µM
same,TGI,NCI-H522 lung,0.0549 µM
same,TGI,OVCAR-3 ovarian,10.3 µM
same,TGI,OVCAR-4 ovarian,0.21 µM
same,TGI,OVCAR-5 ovarian,0.0735 µM and 0.722 µM
same,TGI,OVCAR-8 ovarian,0.9 µM and 0.187 µM
same,TGI,PC-3 prostate,0.252 µM and 0.132 µM
same,TGI,RPMI-8226 leukemia,0.0755 µM
same,TGI,SF-268 CNS,0.32 µM and 0.973 µM
same,TGI,SF-295 CNS,0.121 µM and 0.33 µM
same,TGI,SF-539 CNS,0.127 µM and 0.0653 µM
same,TGI,SK-MEL-2 melanoma,0.0247 µM
same,TGI,SK-MEL-28 melanoma,0.0837 µM and 0.0571 µM
same,TGI,SK-MEL-5 melanoma,0.0261 µM
same,TGI,SN12C renal,0.175 µM
same,TGI,SW-620 colon,0.0394 µM
same,TGI,TK-10 renal,0.392 µM and 0.211 µM
same,TGI,U251 CNS,1.42 µM
same,TGI,UACC-257 melanoma,0.0915 µM
same,TGI,UACC-62 melanoma,0.0235 µM
same,TGI,UO-31 renal,0.0292 µM
